As a reminder, the pIC50 is the IC50 on a negative log10 scale, so that one unit is a factor of ten.

pIC50: −log10 of the molar value. Like-named read-outs stand apart in the source and are kept apart here.

We go through 28 molecules from patent US9790229B2, “Bruton's tyrosine kinase inhibitors” (priority 2009, dated 2017).

This experiment addresses BTK (Homo sapiens (Human), UniProt Q06187). Nature of the experiment: In vitro BTK kinase assay: BTK-POLYGAT-LS ASSAY.
[1] abbreviates: read-out: IC50 (10 uM ATP), 10 uM ATP, in vitro Btk kinase assay, Example 41.

Chain of BTK (Q06187 whole entry): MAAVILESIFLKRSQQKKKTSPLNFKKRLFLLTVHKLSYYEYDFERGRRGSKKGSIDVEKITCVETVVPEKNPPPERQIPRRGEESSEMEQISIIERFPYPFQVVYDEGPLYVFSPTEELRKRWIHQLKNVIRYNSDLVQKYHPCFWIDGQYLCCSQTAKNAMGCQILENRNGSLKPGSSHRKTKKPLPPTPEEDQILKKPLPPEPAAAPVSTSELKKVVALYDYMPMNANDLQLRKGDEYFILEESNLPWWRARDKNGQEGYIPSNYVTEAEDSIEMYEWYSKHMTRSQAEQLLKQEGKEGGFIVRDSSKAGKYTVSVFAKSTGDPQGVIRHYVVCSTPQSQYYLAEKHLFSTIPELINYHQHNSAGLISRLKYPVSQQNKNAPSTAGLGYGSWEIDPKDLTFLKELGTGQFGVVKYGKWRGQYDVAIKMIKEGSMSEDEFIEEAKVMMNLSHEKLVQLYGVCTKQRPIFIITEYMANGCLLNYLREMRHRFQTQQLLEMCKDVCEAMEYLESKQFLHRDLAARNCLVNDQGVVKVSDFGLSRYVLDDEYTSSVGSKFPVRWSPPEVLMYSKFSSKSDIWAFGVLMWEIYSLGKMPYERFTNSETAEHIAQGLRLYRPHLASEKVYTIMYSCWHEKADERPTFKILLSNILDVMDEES

In turn, `Nc1ncnc(N2CC[C@H](O)[C@@H](N3CCCC(Nc4cc(Cl)cc(Cl)c4)C3=O)C2)c1F` (stereo partly drawn) [compound 325, trans 1′-(6-Amino-5-fluoropyrimidin-4-yl)-3-(3,5-dichlorophenylamino)-4′-hydroxy-1,3′-bipiperidin-2-one] showed a pIC50 of 6.00 to 7.00.
Regarding `Nc1ncnc(N2CC[C@H](O)[C@@H](N3CCC[C@@H](Nc4cc(Cl)cc(Cl)c4)C3=O)C2)c1F` [compound 326, trans (3R)-1′-(6-Amino-5-fluoropyrimidin-4-yl)-3-(3,5-dichlorophenylamino)-4′-hydroxy-1,3′-bipiperidin-2-one], under setting [1], the pIC50 was above 7.00.
The same measure, in the same setting: the same measure for `Nc1ncnc(N2CC[C@@H](O)[C@H](N3CCC[C@@H](Nc4cc(Cl)cc(Cl)c4)C3=O)C2)c1F` [compound 327, trans (3R)-1′-(6-Amino-5-fluoropyrimidin-4-yl)-3-(3,5-dichlorophenylamino)-4′-hydroxy-1,3′-bipiperidin-2-one]: above 7.00.
For `Nc1ncnc(N2CC[C@@H](O)[C@H](N3CCC[C@H](Nc4cc(Cl)cc(Cl)c4)C3=O)C2)c1F` [compound 328, trans (3S)-1′-(6-Amino-5-fluoropyrimidin-4-yl)-3-(3,5-dichlorophenylamino)-4′-hydroxy-1,3′-bipiperidin-2-one], the pIC50 is 5.00 to 6.00.
Turning to `Nc1ncnc(N2CC[C@H](C(F)(F)F)[C@@H](N3CCCC(Nc4cc(Cl)cc(Cl)c4)C3=O)C2)c1F` (stereo partly drawn) [compound 334, trans 1′-(6-Amino-5-fluoropyrimidin-4-yl)-3-(3,5-dichlorophenylamino)-4′-(trifluoromethyl)-1,3′-bipiperidin-2-one], the pIC50 under setting [1] was above 7.00.
On the same count and under the same terms, then `Nc1ncnc(N2CC[C@@H](C(F)(F)F)[C@H](N3CCC[C@@H](Nc4cc(Cl)cc(Cl)c4)C3=O)C2)c1F` [compound 335, trans (3R)-1′-(6-Amino-5-fluoropyrimidin-4-yl)-3-(3,5-dichlorophenylamino)-4′-(trifluoromethyl)-1,3′-bipiperidin-2-one], with above 7.00.
As for `Nc1ncnc(N2CC[C@@H](C(F)(F)F)[C@H](N3CCC[C@H](Nc4cc(Cl)cc(Cl)c4)C3=O)C2)c1F` [compound 336, trans (3S)-1′-(6-Amino-5-fluoropyrimidin-4-yl)-3-(3,5-dichlorophenylamino)-4′-(trifluoromethyl)-1,3′-bipiperidin-2-one], the pIC50 was 5.00 to 6.00.
Turning to `Nc1ncnc(N2CC[C@H](C(F)(F)F)[C@@H](N3CCC[C@@H](Nc4cc(Cl)cc(Cl)c4)C3=O)C2)c1F` [compound 337, trans (3R)-1′-(6-Amino-5-fluoropyrimidin-4-yl)-3-(3,5-dichlorophenylamino)-4′-(trifluoromethyl)-1,3′-bipiperidin-2-one], the pIC50 under setting [1] is above 7.00.
Turning to `Nc1ncnc(N2CC[C@H](C(F)(F)F)[C@@H](N3CCC[C@H](Nc4cc(Cl)cc(Cl)c4)C3=O)C2)c1F` [compound 338, trans (3S)-1′-(6-amino-5-fluoropyrimidin-4-yl)-3-(3,5-dichlorophenylamino)-4′-(trifluoromethyl)-1,3′-bipiperidin-2-one], the pIC50 is 5.00 to 6.00.
Consider `O=C1C(Nc2cc(Cl)cc(Cl)c2)CCCN1[C@H]1CN(c2ncnc3[nH]ccc23)CC[C@@H]1C(F)(F)F` (stereo partly drawn) [compound 339, trans-3-(3,5-Dichlorophenylamino)-1′-(7H-pyrrolo[2,3-d]pyrimidin-4-yl)-4′-(trifluoromethyl)-1,3′-bipiperidin-2-one], for which the negative-log IC50 (pIC50) under setting [1] was above 7.00.
Take `Nc1ncnc(N2CCC(F)C(N3CCCC(Nc4cc(F)cc(Cl)c4)C3=O)C2)c1F` (stereo not shown) [compound 340, 1′-(6-Amino-5-fluoropyrimidin-4-yl)-3-(3-chloro-5-fluorophenylamino)-4′-fluoro-1,3′-bipiperidin-2-one]: the pIC50 was 6.00 to 7.00.
For the molecule `Nc1ncnc(N2CC[C@@H](F)[C@@H](N3CCC[C@@H](Nc4cc(F)cc(Cl)c4)C3=O)C2)c1F` [compound 341, (3R,3′S,4′R)-1′-(6-amino-5-fluoropyrimidin-4-yl)-3-(3-chloro-5-fluorophenylamino)-4′-fluoro-1,3′-bipiperidin-2-one], the negative logarithm of the IC50 (pIC50) under setting [1] is above 7.00.
On the same count and under the same terms, then `Nc1ncnc(N2CC[C@@H](F)[C@H](N3CCC[C@@H](Nc4cc(F)cc(Cl)c4)C3=O)C2)c1F` [compound 342, (3R,3′R,4′R)-1′-(6-amino-5-fluoropyrimidin-4-yl)-3-(3-chloro-5-fluorophenylamino)-4′-fluoro-1,3′-bipiperidin-2-one], with below 5.00; and `Nc1ncnc(N2CC[C@H](F)[C@H](N3CCC[C@H](Nc4cc(F)cc(Cl)c4)C3=O)C2)c1F` [compound 343, (3S,3′R,4′S)-1′-(6-amino-5-fluoropyrimidin-4-yl)-3-(3-chloro-5-fluorophenylamino)-4′-fluoro-1,3′-bipiperidin-2-one], with below 5.00.
Still for that read-out and setting: the same measure for `Nc1ncnc(N2CCOCC(N3CCCC(Nc4cc(Cl)cc(Cl)c4)C3=O)C2)c1F` (stereo not shown) [compound 344]: above 7.00; for `Nc1ncnc(N2CCOCC(N3CCCC(Nc4cc(F)cc(Cl)c4)C3=O)C2)c1F` (stereo not shown) [compound 345, 1-(4-(6-Amino-5-fluoropyrimidin-4-yl)-1,4-oxazepan-6-yl)-3-(3-chloro-5-fluorophenylamino)piperidin-2-one]: above 7.00; for `Nc1ncnc(N2CCC[C@@H](N3CCCC[C@@H](Nc4cc(F)cc(Cl)c4)C3=O)C2)c1F` [compound 346, (R)-1-((R)-1-(6-amino-5-fluoropyrimidin-4-yl)piperidin-3-yl)-3-(3-chloro-5-fluorophenylamino)azepan-2-one]: above 7.00.
For the molecule `Nc1ncnc(N2CCC[C@@H](N3CC=CC[C@@H](Nc4cc(F)cc(Cl)c4)C3=O)C2)c1F` [compound 347, (R,Z)-1-((R)-1-(6-amino-5-fluoropyrimidin-4-yl)piperidin-3-yl)-3-(3-chloro-5-fluorophenylamino)-3,4-dihydro-1H-azepin-2(7H)-one], the negative logarithm of the IC50 (pIC50) under setting [1] is above 7.00.
On the same count and under the same terms, then `Nc1ncnc(N2CCC[C@@H](N3CC(O)C(O)C[C@@H](Nc4cc(F)cc(Cl)c4)C3=O)C2)c1F` (stereo partly drawn) [compound 348, (3R)-1-((R)-1-(6-amino-5-fluoropyrimidin-4-yl)piperidin-3-yl)-3-(3-chloro-5-fluorophenylamino)-5,6-dihydroxyazepan-2-one], with above 7.00; and `Nc1ncnc(N2CCC(C(F)(F)F)C(N3CC=CC[C@@H](Nc4cc(F)cc(Cl)c4)C3=O)C2)c1F` (stereo partly drawn) [compound 349, trans (R,Z)-1-(-1-(6-amino-5-fluoropyrimidin-4-yl)-4-(trifluoromethyl)piperidin-3-yl)-3-(3-chloro-5-fluorophenylamino)-3,4-dihydro-1H-azepin-2(7H)-one], with above 7.00.
On the same count and under the same terms, the same measure for `Nc1ncnc(N2CC[C@@H](C(F)(F)F)[C@H](N3CC=CC[C@@H](Nc4cc(F)cc(Cl)c4)C3=O)C2)c1F` [compound 350]: above 7.00; for `O=C1C(Nc2cc(F)cc(Cl)c2)CCCN1[C@H]1CN(c2ncnc3[nH]ccc23)CC[C@@H]1C(F)(F)F` (stereo partly shown) [compound 352]: above 7.00.
Take `Nc1ncnc(N2CC[C@H](C(F)(F)F)[C@@H](N3CC[C@@H](Nc4cc(Cl)cc(Cl)c4)C3=O)C2)c1F` [compound 353]: the pIC50 under setting [1] is above 7.00.
As to `Nc1ncnc(N2CCC[C@@H](N3CC[C@@H](Nc4cc(Cl)cc(Cl)c4)C3=O)C2)c1Cl` [compound 354], the pIC50 is 6.00 to 7.00.
As for `O=C1[C@@H](Nc2cc(Cl)cc(Cl)c2)CCN1[C@@H]1CCCN(c2ncnc3[nH]ccc23)C1` [compound 357], under setting [1], the negative logarithm of the IC50 (pIC50) was above 7.00.
For the molecule `N#CNc1cc(N2CCC[C@@H](N3CCCC(Nc4cc(F)cc(Cl)c4)C3=O)C2)ncn1` (stereo partly shown) [compound 358], the pIC50 is 6.00 to 7.00.
Take `Nc1ncnc(N2CC(N3CCCC(Nc4cc(F)cc(Cl)c4)C3=O)CC(F)(F)C2)c1F` (stereo not shown) [compound 359]: the pIC50 under setting [1] is above 7.00.
The same measure, in the same setting: then `Nc1cc(N2CCC[C@@H](N3CCCC(Nc4cc(F)cc(Cl)c4)C3=O)C2)ncn1` (stereo partly shown) [compound 361], with above 7.00.
